Columns and labels:
Format in all cases: cell-based
[1] = tested on: SKBR3 (PI3Kα wild type) cells; assay: CellTiter-Glo 2.0 luminescent cell viability assay, 72 hours, SKBR3 cells; conditions: Homo sapiens, SK-BR-3, 72 h, SKBR3 (PI3Kα wild type) cells, CellTiter-Glo, approximately 72 hours; read-out: SKBR3 (WT) Viability IC50
Method in brief: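 Viability measured via CTG luminescence following roughly 72 hours of compound exposure at 37° C. Dosing used a 10 um starting concentration diluted 1:4 over 10 points; percent-of-vehicle data fitted with a variable-slope four-parameter model for IC50.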

[2] = tested on: SKBR3 (PI3Kα wild type) cells; assay: Inhibition of pAKT formation, alphaLISA SureFire Ultra AKT 1/2/3 (pS473), SKBR3 cells; conditions: Homo sapiens, SK-BR-3; Inhibition of pAKT in SKBR3 (PI3Kα wild type) cells; read-out: SKBR3 (WT) pAKT IC50 (nM) (H1047R mutant) IC50
Method in brief: (§1)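 Cells seeded in HBSS (SKBR3 12,000/well, MKN1 24,000/well) and dosed immediately, 10-point 1:4 series from […], for about 1 h or 24 h at 37 °C. pAKT S473 by alphaLISA after lysis; signal normalised to alpelisib and DMSO controls, IC50 by four-parameter fit.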

[3] = tested on: MKN1 (PI3Kα E545K mutant) cells; assay: CellTiter-Glo 2.0 luminescent cell viability assay, 72 hours, MKN1 cells; conditions: Homo sapiens, MKN-1; MKN1 (PI3Kα E545K mutant) cells, CellTiter-Glo, approximately 72 hours; read-out: MKN1 (E545K) Viability IC50
Method in brief: (§2)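 Viability was measured by CellTiter-Glo 2.0 luminescence after approximately 72 h of compound exposure at 37° C. Plating was 1000 cells per well the day before dosing, with ten 1:4 dilutions from a 10 µM top concentration. Values as percent of vehicle were fitted by variable-slope log(inhibitor) regression to give IC50.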

[4] = tested on: T47D (PI3Kα H1047R mutant) cells; assay: Inhibition of pAKT formation, alphaLISA SureFire Ultra AKT 1/2/3 (pS473), T47D cells; conditions: Homo sapiens, T47D, T47D (PI3Kα H1047R mutant) cells; inhibition of pAKT (pS473) formation; approximately one hour or 24 hours treatment; read-out: T47D pAKT (H1047R mutant) IC50
Method in brief: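 AKT Ser473 phosphorylation was quantified by alphaLISA SureFire Ultra after roughly 1 h or 24 h compound exposure at 37 °C. Cells were T47D (12,000/well in HBSS), treated with a 10-point 1:4 series starting at 10.4 μM. Percent of control used alpelisib background and DMSO reference, and IC50 came from four-parameter logistic fitting.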

[5] = tested on: MKN1 (PI3Kα E545K mutant) cells; assay: Inhibition of pAKT formation, alphaLISA SureFire Ultra AKT 1/2/3 (pS473), MKN1 cells; conditions: Homo sapiens, MKN-1; MKN1 (PI3Kα E545K mutant) cells; inhibition of pAKT (pS473) formation; approximately one hour or 24 hours treatment; read-out: MKN1 (E545K) pAKT IC50
Method in brief: as §1

[6] = tested on: T47D (PI3Kα H1047R mutant) cells; assay: CellTiter-Glo 2.0 luminescent cell viability assay, 72 hours, T47D cells; conditions: Homo sapiens, T47D, 72 h, T47D (PI3Kα H1047R mutant) cells, CellTiter-Glo, approximately 72 hours; read-out: T47D (H1047R mutant) Viability IC50
Method in brief: as §2

IC50 [1] | IC50 [2] | IC50 [3] | IC50 [4] | IC50 [5] | IC50 [6] | Compound
> 10 µM | > 10000 nM | > 10 µM | > 10 µM | > 10 µM | > 10 µM | Cc1cc(C(C)Nc2ccccc2C(=O)N(C)C)c2nc(N3CCCCC3)cc(=O)n2c1 (stereo not drawn) [Example 3-15, N,N-dimethyl-2-((1-(7-methyl-4-oxo-2-(piperidin-1-yl)-4H-pyrido[1,2-a]pyrimidin-9-yl)ethyl)amino)benzamide]
> 10 µM | 3540 nM | > 10 µM | 0.0321 µM | > 10 µM | > 10 µM | CC(Nc1ccccc1C(=O)O)c1cc(C2CC2)cn2c(=O)cc(N3CCCCC3)nc12 (stereo not drawn) [Example 5-3, 2-((1-(7-cyclopropyl-4-oxo-2-(piperidin-1-yl)-4H-pyrido[1,2-a]pyrimidin-9-yl)ethyl)amino)benzoic acid]
> 10 µM | > 10000 nM | > 10 µM | 1.91 µM | 0.755 µM | > 10 µM | Cc1cc([C@H](C)Nc2ccccc2C(=O)O)c2nc(N3CCCCC3)cc(=O)n2c1 (single isomer, unassigned) [Example 3-2]
> 10 µM | 7070 nM | > 10 µM | 0.0135 µM | 1.95 µM | 0.98 µM | Cc1cc([C@H](C)Nc2ccccc2C(=O)O)c2nc(N3CCC(C)(C)CC3)cc(=O)n2c1 (single isomer, unassigned) [Example 5-4]
